Data published in patent US20180246121A1, “IMMUNOLOGICAL TEST METHOD AND IMMUNOLOGICAL TEST KIT” (Fuso Parmaceutical Industries, Ltd., priority 2015, published 2018).

Experiments:
HMGB2 [1] = biological target: T1, HMGB2 (Homo sapiens, UniProt P26583); experiment: Competitive sandwich ELISA, immobilized anti-HMGB1 antibody HMa166 and HRP-labeled anti-HMGB1 antibody CP11-1: nonspecific reaction to HMGB2; assay type: binding; conditions: 1,820 ng/mL HMGB2; HMGB2 peptide 0 to 1.0 mg/mL; labeled CP11-1
T1 sequence (P26583 1-209): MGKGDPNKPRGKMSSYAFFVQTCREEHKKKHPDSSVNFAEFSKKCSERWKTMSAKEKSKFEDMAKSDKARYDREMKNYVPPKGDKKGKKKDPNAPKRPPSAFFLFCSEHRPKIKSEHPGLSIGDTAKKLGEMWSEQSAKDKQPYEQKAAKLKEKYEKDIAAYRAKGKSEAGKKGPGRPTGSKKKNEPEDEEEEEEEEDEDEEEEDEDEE
Description: A 100 μL portion of 10 μg/mL anti-HMGB1 antibody HMa166 was added to a 96-well ELISA plate (Maxsorp, Nunc). Then, immobilization was carried out according to a standard method, and blocking was performed by dispensing 200 μL of ImmunoBlock (DS Pharma Biomedical) diluted five-fold in purified water. After washing with TBSt (10 mM Tris pH 7.4, 150 mM NaCl, 0.05% Tween-20), HMGB2 was added at 1,400 ng/mL, the mixture was allowed to react at room temperature for two hours followed by washing with TBSt, and an HRP-labeled anti-HMGB1 antibody CP11-1 was added. Then, after washing, chromogenic substrate TMBZ (KPL) was added according to a standard method. The reaction was stopped using phosphoric acid, and the absorbance at 450 nm was measured using a microplate reader. Furthermore, as a competitive agent, commercially available anti-HMGB2 antibodies shown in Table 1 were added to the reaction system at 10 μg/mL, and impairment of the reaction due to anti-HMGB2 antibodies was observed.
Furthermore, 0 to 1,300 μg/mL HMGB2 was measured by sandwich ELISA using the MHa166 antibody and the CP11-1 antibody, which were obtained by immunization with HMGB1, to observe how much HMGB2 reacts in ELISA using the MHa166 antibody and the CP11-1 antibody. […]

HMGB1 [2] = experiment: Sandwich ELISA, immobilized HMa166 and HRP-labeled CP11-1: HMGB1 measurement in the presence of an HMGB2 absorbent; assay type: binding, human; conditions: 12.5 ng/mL HMGB1, HMGB2 peptide 0 to 1.0 mg/mL
Description: Then, the effects of each anti-HMGB2 antibody were observed.
By means of an ELISA system using immobilized anti-HMGB1 antibody MHa166 and an HRP-labeled anti-HMGB1 antibody CP11-1, it was examined whether nonspecific reactions by HMGB2 will be decreased when the reaction is achieved by 1,820 ng/mL HMGB2 in the presence of the HMGB2 peptide at 0 to 1.0 mg/mL (FIGS. 8B and 9B). In addition, effects of the coexisting HMGB2 peptide on HMGB1 measurements were similarly examined using 12.5 ng/mL HMGB1 (FIGS. 8A and 9A).

HMGB1 [3] = experiment: ELISA, immobilized HMa166 and HRP-labeled HMGB1 polyclonal antibody No. 12: HMGB1 measurement; assay type: binding, human; conditions: 50 ng/mL HMGB1; peptide 0.5 mg/mL; labeled polyclonal antibody No. 12
Description: (§1) Anti-HMGB1 antibody HMa166 at 10 μg/mL was immobilized onto a 96-well ELISA plate (Maxsorp, Nunc), and blocking was performed by dispensing 200 μL of ImmunoBlock (DS Pharma Biomedical) diluted five-fold in purified water. After washing with TBSt (10 mM Tris pH 7.4, 150 mM NaCl, 0.05% Tween-20), HMGB1 was added at 50 ng/mL or HMGB2 was added at 1,820 ng/mL, […] The mixture was allowed to react at 37° C. for two hours followed by washing with TBSt. After adding HMGB1 polyclonal antibody No. 12 or No. 14 obtained by immunizing rabbits with a synthetic human HMGB1 peptide or a recombinant human HMGB1, each of which had been labeled with HRP, the mixture was reacted at room temperature for one hour. After the reaction, the plate was washed with TBSt, and chromogenic substrate TMBZ (KPL) was added according to a standard method, the reaction was stopped with phosphoric acid, and the absorbances at 450 nm were measured using a microplate reader, […]
(§2) Next, whether similar effects can be obtained with antibodies other than CP11-1 was examined. […]

HMGB2 [4] = biological target: T1, HMGB2; experiment: ELISA, immobilized HMa166 and HRP-labeled HMGB1 polyclonal antibody No. 12: nonspecific reaction to HMGB2; assay type: binding; conditions: 1,820 ng/mL HMGB2; peptide 0.5 mg/mL; labeled polyclonal antibody No. 12
HMGB1 [5] = experiment: ELISA, immobilized HMa166 and HRP-labeled HMGB1 polyclonal antibody No. 14: HMGB1 measurement; assay type: binding, human; conditions: 50 ng/mL HMGB1; peptide 0.5 mg/mL; labeled polyclonal antibody No. 14
Description: as §1, §2

HMGB2 [6] = biological target: T1, HMGB2; experiment: ELISA, immobilized HMa166 and HRP-labeled HMGB1 polyclonal antibody No. 14: nonspecific reaction to HMGB2; assay type: binding; conditions: 1,820 ng/mL HMGB2; peptide 0.5 mg/mL; labeled polyclonal antibody No. 14
Description: Furthermore, whether commercially available anti-HMGB2 antibodies can suppress nonspecific reactions to HMGB2 even when the labelled antibody is changed was examined. Anti-HMGB1 antibody HMa166 at 10 μg/mL was immobilized onto a 96-well ELISA plate (Maxsorp, Nunc), and blocking was performed by dispensing 200 μL of ImmunoBlock (DS Pharma Biomedical) diluted five-fold in purified water. After washing with TBSt (10 mM Tris pH 7.4, 150 mM NaCl, 0.05% Tween-20), HMGB1 was added at 50 ng/mL or HMGB2 was added at 1,820 ng/mL, […] The mixture was allowed to react at 37° C. for two hours followed by washing with TBSt. After adding HMGB1 polyclonal antibody No. 12 or No. 14 obtained by immunizing rabbits with a synthetic human HMGB1 peptide or a recombinant human HMGB1, each of which had been labeled with HRP, the mixture was reacted at room temperature for one hour. After the reaction, the plate was washed with TBSt, and chromogenic substrate TMBZ (KPL) was added according to a standard method, the reaction was stopped with phosphoric acid, and the absorbances at 450 nm were measured using a microplate reader, to observe impairment of the reaction due to the anti-HMGB2 antibody.
as §2

HMGB1 [7] = experiment: ELISA, immobilized MHa166 and HRP-labeled monoclonal antibody HMa176: HMGB1 measurement; assay type: binding, human; conditions: 50 ng/mL HMGB1, peptide 0.5 mg/mL
Description: Similar examinations were carried out for systems using another monoclonal antibody. It was examined how the reactions achieved by 50 ng/mL HMGB1 change when MHa176 antibody, which was obtained by immunization with HMGB1, were HRP-labeled and an HMGB2 peptide was allowed to coexist at a concentration of 0.5 mg/mL in an ELISA system with the immobilized anti-HMGB1 antibody MHa166 (FIG. 12A). Furthermore, effects of the coexisting HMGB2 peptide on HMGB2 measurements were similarly examined using 1,820 ng/mL HMGB2 (FIG. 12B).

Row | effect of HMGB2 peptide on HMGB2 measurements (HMGB2 [4]) | neutralizing effects on HMGB2 (HMGB2 [6]) | Sequence | absorption of nonspecific reaction to HMGB2 by HMGB2 peptide (HMGB2 [1]) | effect of HMGB2 peptide on measured values of HMGB1 (HMGB1 [2]) | effect of HMGB2 peptide on measured values of HMGB1 (HMGB1 [2]; listed as HM2-2 peptide) | enhancement of the reaction with HMGB1 (HMGB1 [3]) | effect of HMGB2 peptide on HMGB1 measurements (HMGB1 [5]) | effect of HMGB2 peptide on reactivity of HMGB1 (HMGB1 [7]) | effect of HMGB2 peptide on HMGB1 measurements (HMGB1 [3])
1 | attenuated | not observed | CREEHKKKHPDSSVNFAEFS [HM2-2, HMGB2-derived peptide, 23rd to 42nd amino acids of full-length human HMGB2] | absorbed nonspecific reactions to HMGB2 in a concentration-dependent manner | concentration-dependent reaction enhancement | concentration-dependent enhancement of the reaction | approximately 1.6 fold | increased the reactivity of HMGB1 | enhancement of reactivity of HMGB1 | –
2 | did not affect | not observed | MGKGDPNKPRGKMSSYA [HM2-1, HMGB2-derived peptide, 1st to 17th amino acids of full-length human HMGB2] | able to absorb nonspecific reaction to HMGB2 in a concentration-dependent manner | hardly affected | – | – | did not have any influence | – | did not affect
